Results taken from the supplement of paper PMC10307832.

Experiments:
Test in all cases: relative viability (nuclei count vs DMSO), 5 days (fraction); higher = more cells survive
SK-LU-1 = test system: SK-LU-1
Outline: (§1)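 Five library-drug doses in √10 steps were combined with a fixed anchor-drug dose, or a single drug was given alone, by pin tool to lung cancer cell lines in 1536-well plates the day after seeding. Nuclei were stained and counted after 5 days. Relative viability is the nuclei count in treated wells over that in vehicle wells, taken as the median of duplicate plates.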

NCI-H1793 = test system: NCI-H1793
Outline: as §1

CAL-12T = test system: CAL-12T
Outline: as §1

NCI-H1734 = test system: NCI-H1734
Outline: as §1

LU99A = test system: LU99A
Outline: as §1

NCI-H2085 = test system: NCI-H2085
Outline: as §1

NCI-H460 = test system: NCI-H460
Outline: as §1

HCC-366 = test system: HCC-366
Outline: as §1

NCI-H441 = test system: NCI-H441
Outline: as §1

NCI-H1437 = test system: NCI-H1437
Outline: as §1

COR-L23 = test system: COR-L23
Outline: as §1

NCI-H1355 = test system: NCI-H1355
Outline: as §1

NCI-H1563 = test system: NCI-H1563
Outline: as §1

NCI-H1651 = test system: NCI-H1651
Outline: as §1

LOU-NH91 = test system: LOU-NH91
Outline: as §1

NCI-H838 = test system: NCI-H838
Outline: as §1

NCI-H2023 = test system: NCI-H2023
Outline: as §1

NCI-H1975 = test system: NCI-H1975
Outline: as §1

BEN = test system: BEN
Outline: as §1

NCI-H358 = test system: NCI-H358
Outline: as §1

O=c1cc(N2CCOCC2)oc2c(-c3cccc4c3sc3ccccc34)cccc12 + Cc1nc(NC(=O)N2CCC[C@H]2C(N)=O)sc1-c1ccnc(C(C)(C)C(F)(F)F)c1 [Alpelisib] (partner 2 µM)
relative viability (SK-LU-1; first compound 0.03162 µM): 0.966 | relative viability (SK-LU-1; first compound 0.1 µM): 0.985 | relative viability (SK-LU-1; first compound 0.3162 µM): 1.09 | relative viability (SK-LU-1; first compound 1 µM): 1.01 | relative viability (NCI-H1793; first compound 0.01 µM): 0.607 | relative viability (NCI-H1793; first compound 0.03162 µM): 0.866 | relative viability (NCI-H1793; first compound 0.1 µM): 0.7 | relative viability (NCI-H1793; first compound 0.3162 µM): 0.705 | relative viability (NCI-H1793; first compound 1 µM): 0.484 | relative viability (CAL-12T; first compound 0.01 µM): 1.29 | relative viability (CAL-12T; first compound 0.03162 µM): 1.1 | relative viability (CAL-12T; first compound 0.1 µM): 1.13 | relative viability (CAL-12T; first compound 0.3162 µM): 1.27 | relative viability (CAL-12T; first compound 1 µM): 1.1 | relative viability (NCI-H1734; first compound 0.01 µM): 0.7 | relative viability (NCI-H1734; first compound 0.03162 µM): 0.727 | relative viability (NCI-H1734; first compound 0.1 µM): 0.686 | relative viability (NCI-H1734; first compound 0.3162 µM): 0.698 | relative viability (NCI-H1734; first compound 1 µM): 0.623 | relative viability (LU99A; first compound 0.01 µM): 0.595 | relative viability (LU99A; first compound 0.03162 µM): 0.532 | relative viability (LU99A; first compound 0.1 µM): 0.521 | relative viability (LU99A; first compound 0.3162 µM): 0.598 | relative viability (LU99A; first compound 1 µM): 0.571 | relative viability (NCI-H2085; first compound 0.01 µM): 0.941 | relative viability (NCI-H2085; first compound 0.03162 µM): 0.902 | relative viability (NCI-H2085; first compound 0.1 µM): 1.02 | relative viability (NCI-H2085; first compound 0.3162 µM): 0.919 | relative viability (NCI-H2085; first compound 1 µM): 0.983 | relative viability (NCI-H460; first compound 0.01 µM): 0.509 | relative viability (NCI-H460; first compound 0.03162 µM): 0.502 | relative viability (NCI-H460; first compound 0.1 µM): 0.495 | relative viability (NCI-H460; first compound 0.3162 µM): 0.373 | relative viability (NCI-H460; first compound 1 µM): 0.538 | relative viability (HCC-366; first compound 0.01 µM): 0.386 | relative viability (HCC-366; first compound 0.03162 µM): 0.469 | relative viability (HCC-366; first compound 0.1 µM): 0.44 | relative viability (HCC-366; first compound 0.3162 µM): 0.372 | relative viability (HCC-366; first compound 1 µM): 0.367 | relative viability (NCI-H441; first compound 0.01 µM): 0.832 | relative viability (NCI-H441; first compound 0.03162 µM): 0.658 | relative viability (NCI-H441; first compound 0.1 µM): 0.792 | relative viability (NCI-H441; first compound 0.3162 µM): 0.842 | relative viability (NCI-H441; first compound 1 µM): 0.7 | relative viability (NCI-H1437; first compound 0.01 µM): 0.931 | relative viability (NCI-H1437; first compound 0.03162 µM): 0.937 | relative viability (NCI-H1437; first compound 0.1 µM): 1.02 | relative viability (NCI-H1437; first compound 0.3162 µM): 0.993 | relative viability (NCI-H1437; first compound 1 µM): 0.95 | relative viability (COR-L23; first compound 0.01 µM): 0.871 | relative viability (COR-L23; first compound 0.03162 µM): 0.718 | relative viability (COR-L23; first compound 0.1 µM): 0.922 | relative viability (COR-L23; first compound 0.3162 µM): 0.795 | relative viability (COR-L23; first compound 1 µM): 0.753 | relative viability (NCI-H1355; first compound 0.01 µM): 0.871 | relative viability (NCI-H1355; first compound 0.03162 µM): 0.855 | relative viability (NCI-H1355; first compound 0.3162 µM): 0.903 | relative viability (NCI-H1355; first compound 1 µM): 0.82 | relative viability (NCI-H1563; first compound 0.01 µM): 0.917 | relative viability (NCI-H1563; first compound 0.03162 µM): 0.858 | relative viability (NCI-H1563; first compound 0.1 µM): 0.93 | relative viability (NCI-H1563; first compound 0.3162 µM): 0.833 | relative viability (NCI-H1563; first compound 1 µM): 0.844 | relative viability (NCI-H1651; first compound 0.01 µM): 0.924 | relative viability (NCI-H1651; first compound 0.03162 µM): 0.952 | relative viability (NCI-H1651; first compound 0.1 µM): 1.04 | relative viability (NCI-H1651; first compound 0.3162 µM): 0.968 | relative viability (NCI-H1651; first compound 1 µM): 1.01 | relative viability (LOU-NH91; first compound 0.01 µM): 0.656 | relative viability (LOU-NH91; first compound 0.03162 µM): 0.698 | relative viability (LOU-NH91; first compound 0.1 µM): 0.726 | relative viability (LOU-NH91; first compound 0.3162 µM): 0.759 | relative viability (LOU-NH91; first compound 1 µM): 0.69 | relative viability (NCI-H838; first compound 0.01 µM): 0.961 | relative viability (NCI-H838; first compound 0.03162 µM): 0.99 | relative viability (NCI-H838; first compound 0.1 µM): 1.03 | relative viability (NCI-H838; first compound 0.3162 µM): 1.02 | relative viability (NCI-H838; first compound 1 µM): 0.975 | relative viability (NCI-H2023; first compound 0.01 µM): 0.653 | relative viability (NCI-H2023; first compound 0.03162 µM): 0.621 | relative viability (NCI-H2023; first compound 0.1 µM): 0.618 | relative viability (NCI-H2023; first compound 0.3162 µM): 0.532 | relative viability (NCI-H2023; first compound 1 µM): 0.487 | relative viability (NCI-H1975; first compound 0.01 µM): 0.619 | relative viability (NCI-H1975; first compound 0.03162 µM): 0.623 | relative viability (NCI-H1975; first compound 0.1 µM): 0.649 | relative viability (NCI-H1975; first compound 0.3162 µM): 0.621 | relative viability (NCI-H1975; first compound 1 µM): 0.608 | relative viability (BEN; first compound 0.01 µM): 0.946 | relative viability (BEN; first compound 0.03162 µM): 1.16 | relative viability (BEN; first compound 0.1 µM): 0.951 | relative viability (BEN; first compound 0.3162 µM): 0.951 | relative viability (BEN; first compound 1 µM): 1.05 | relative viability (NCI-H358; first compound 0.01 µM): 0.811 | relative viability (NCI-H358; first compound 0.03162 µM): 0.807 | relative viability (NCI-H358; first compound 0.1 µM): 0.841 | relative viability (NCI-H358; first compound 0.3162 µM): 0.847 | relative viability (NCI-H358; first compound 1 µM): 0.83
